Where two headings read alike, the source gives them in different places.
What was measured:
[1] = test system: articular cartilage defect; assay: Microfracture (MF) surgery-induced cartilage defect (CD) rat model; format: in vivo, Sprague-Dawley (SD) rats; details: hydrogel containing compound; for Cartilage regeneration, appearance of the defect: 6 weeks of post-surgery
Description: Ca(NO3)2·4H2O was obtained from Sinopharm Chemical Reagent. Waxy starch (amylopectin more than 90%) was purchased from Qinhuangdao Lihua Starch. For the preparation of starch hydrogels, a fixed water-to-starch mass ratio of 5 was used, and the crosslinker Ca(NO3)2·4H2O was dissolved in the starch solution. The mixture was stirred at 60 °C for 1 h to obtain a viscous gel. The starch hydrogel prepared with Ca(NO3)2·4H2O and Waxy starch was named as 14 Gel. The hydrogel is sterilized by UV for 30 min and then used. HL-43 and Grapiprant were each dissolved in the DMSO solvent (100 mM). Compound/14 Gel was prepared by mixing the solutions at a weight ratio of 1/10 (w/w).
Thirty-six male Sprague-Dawley (SD) rats (280–300 g) were randomized into three groups (each group n = 4 rats for each time point), […] were used as controls (n = 4). After anesthetizing with 3.5% chloral hydrate (10 ml/kg), the rats were fixed on the operating table in supine position and the skin was prepared and disinfected. A 2 cm longitudinal incision along the medial margin of the patella of the right knee was made with a scalpel and then the capsule was open to expose the articular cartilage surface. A manual drill with a diameter of 2 mm was used to drill holes in the femoral intercondylar fossa of the rat (2 mm × 2 mm). After washing with saline, the gauze was pressed and 100 μl 14 Gel containing appropriate drugs or vehicle were injected. After the injection, the compression flexes and compresses were applied several times to spread the gel throughout the knee joint. The ligaments and skin were sutured. After 2, 4, and 6 weeks, the repaired articular cartilage was histologically analyzed and correlation was scored.

zebrafish embryos = assay: Zebrafish embryo toxicity assay; parameters: Mortality / Deformities / Hatching: dose or concentration left out as unconfirmed; details: for Mortality: zebrafish embryos; for Deformities / Hatching: zebrafish
Description: A breeding stock of zebrafish at the age of 6–24 months is used for egg production. Fertilized eggs were collected and viable eggs were transferred to the 12-well plate at 26 °C. Fertilized eggs between the 4-cell and 128-cell stages be used for the toxicity test, with ten fertilized eggs per concentration and three replicates of each concentration, a total of 30 eggs for each concentration. […] DMSO was added as vehicle control. Hatching, morphological abnormalities and survival were assessed 24 and 72 h of post-fertilization (dpf) in zebrafish exposed to the chemicals.

CRE-Luc in ATDC5 cells = assay: CRE-Luc luciferase reporter assay; format: cell-based, mouse; details: for CRE-Luc activity: 12 hr
Description: Six firefly luciferase reporters were used in the Luciferase assay, including CRE-Luc (PathDetect CRE cis-Reporting System; Stratagene, La Jolla CA) driven by a basic promoter (TATA box) plus four repeats of CRE; Sox9 promoter-Luc contains human SOX9 proximal promoter region (−1034 bp to +67 bp)[45]; 4 × 48-p89-Luc, mouse Col2a1 minimal promoter. AP-1-Luc, Nf-κb-Luc, STAT-Luc were obtained from Stratagene. Chondrocytes were cultured in 24-well plates and 300 ng firefly luciferase reporter constructs were transiently transfected using transfection reagent TransExellent-DNA (Cenji Biotech Inc, China) following manufacturer’s instruction, and 15 ng of the Copia-Renilla luciferase reporter was co-transfected as a normalization control. […] The Dual-Luciferase measurements were performed in triplicate using the Luciferase assay kit (Promega) and a LUMIstar Omega luminometer (BMG Labtech, Mornington, Australia).

[2] = test system: primary articular chondrocytes; assay: Cell viability by CCK-8 assay; format: cell-based, mouse; details: 72 h, read-out: IC50 (cell viability, toxicity in chondrocytes)
Description: The cell viability was evaluated by CCK-8 assay (Dojindo Molecular Technologies). Primary chondrocytes were plated in the 96-well plates and treated with the EP4 antagonists or DMSO for 72 h. A total of 10 μl CCK-8 was added to each well, the cells were incubated in the presence of CCK-8 for 2–3 h. The optical density (OD) of each well at 450 nm was recorded on a Microplate Reader (SPECTRA MAX190). The absorbance values were normalized by subtracting blank values of […]. The cell viability (% of control) is calculated as the percentage of (ODtest − ODblank)/(ODcontrol − ODblank). The 50% inhibitory concentration (IC50) was calculated with GraphPad Prism software using the sigmoidal dose-response function.
ATDC5 cell line was purchased from Riken BioResource Center (Tsukuba, Japan) and grown in a 1:1 mixture of DMEM/F12 medium (Corning, 10-092-CVR) supplemented with 5% fetal bovine serum (Gibco, 10099, USA) and 1% penicillin-streptomycin solution (Life Technologies). Cells were maintained at 37 °C under 5% CO2. Primary chondrocytes were obtained from knee joint cartilage of newborn mice. Knee joints were dissected from the tibia plateau and femoral condyle articular cartilage of mouse pups and digested in 0.1% collagenase type II (Sigma) overnight at 37 °C and chondrocytes were harvested by centrifugation. Primary chondrocytes were cultured at a density of 5 × 10^3 cells per ml at 37 °C with 5% CO2. DMEM/F12 medium with 10% fetal bovine serum (FBS) and 1% penicillin–streptomycin was used to culture the primary chondrocytes. Chondrogenic differentiation were induced with chondrogenic medium, which contains insulin-transferrin-selenium (ITS) (Sigma, I3146), 10 ng/ml TGF-β3 (PEPROTECH, 100-36E, USA), 100 nM Dexamethasone (Sigma, D4902), 50 μg/ml VC (Sigma), 1 mM sodium pyruvate (Sigma) and 40 μg/ml proline (Sigma), and/or treatment with rmIL-1β (R&D, 401-ML/CF), TNFα (PEPROTECH, 300-01A-50) in DMEM/F12 for indicated days. Western blotting was performed according to standard protocols. Antibodies used were: rabbit anti-Mmp3 (1:1000, HuaBio), rabbit anti-Mmp13 (1:500, abcam, ab39012), rabbit anti-p-CREB (1:2000, Cell Signaling Technology, 87G3), rabbit anti-CREB (1:2000, Cell Signaling Technology, 48H2), mouse anti-GAPDH (1:5000; Sigma-Aldrich, G8795), rabbit anti-Col2 (Abcam, Ab34712), rabbit anti-STAT3 (1:2000; Abcam, ab68153), rabbit anti-p-STAT3 (Y705) (1:2000; Abcam, ab76315), rabbit anti -p65 (1:1000; CST, 3034), rabbit anti-p-p65 (1:1000; CST, 3033), and rabbit anti-IκBα (1:1000; Abways, CY5026).

[3] = 72 hpf, in comparison to Celecoxib and Grapiprant

| Structure (SMILES) | Cartilage repair, ICRS Macroscopic and ICRS Visual Histological scores ([1]; 4 weeks after MF surgery) | Cartilage regeneration, appearance of the defect [1] | Mortality rate, ranking (zebrafish embryos; 24 hpf, in comparison to Celecoxib and Grapiprant) | Deformities rate, ranking (zebrafish embryos; [3]) | Hatching rate, ranking (zebrafish embryos; [3]) | Mortality (zebrafish embryos; 24hpf, 0.3, n=30) | Mortality (zebrafish embryos; 24hpf, 1, n=30) | Mortality (zebrafish embryos; 24hpf, 3, n=30) | Deformities (zebrafish embryos; 72hpf, 0.3, n=30) | Hatching (zebrafish embryos; 72hpf, 0.3, n=30) | Deformities (zebrafish embryos; 72hpf, 1, n=30) | Hatching (zebrafish embryos; 72hpf, 1, n=30) | Deformities (zebrafish embryos; 72hpf, 3, n=30) | Hatching (zebrafish embryos; 72hpf, 3, n=30) | CRE-Luc reporter activity under pro-inflammatory conditions (CRE-Luc in ATDC5 cells; 2 ng/ml IL-1β or 100 nM PGE2, 6 h) | CRE-Luc activity (CRE-Luc in ATDC5 cells) | IC50 [2] [µM] | IC50 ([2]; Mus musculus, Chondrocyte) [µM] |
| --- | --- | --- | --- | --- | --- | --- | --- | --- | --- | --- | --- | --- | --- | --- | --- | --- | --- | --- |
| C[C@H](NC(=O)c1c(-c2ccccc2)nnn1CCOc1ccc(F)cc1)c1ccc(C(=O)O)cc1 [HL-43] | mild effects on cartilage repair | surfaces were smooth and cartilage layers were regenerated | lowest mortality rate | lowest deformities rate | highest hatching rate | 0/30 | 3/30 | 6/30 | 2/30 | 28/30 | 2/30 | 26/30 | 4/30 | 23/30 | dose-dependently activated | increase CRE-Luc activity in a dose dependent manner | > 1000 |  |
| CCc1nc2c(C)nc(C)cc2n1-c1ccc(CCNC(=O)NS(=O)(=O)c2ccc(C)cc2)cc1 [Grapiprant] |  | still visible |  |  |  | 4/30 | 14/30 | 13/30 | 4/30 | 24/30 | 3/30 | 16/30 | 4/30 | 17/30 |  | increase CRE-Luc activity in a dose dependent manner |  | 113 |
